Data published in US12318403B2, “2′3′-cyclic dinucleotides and prodrugs thereof” (INSTITUTE OF ORGANIC CHEMISTRY AND BIOCHEMISTRY ASCR, V.V.I., priority 2019, dated 2025).
Like-named read-outs stand apart in the source and are kept apart here.

System: peripheral blood mononuclear cell (PBMC)
Experiment: Peripheral blood mononuclear cell assay
Conditions: compounds 1h, washed, 15 hour incubation, average of one to four donors
[1] = read-out: PBMC EC50 IFN-α, interferon-alpha level in medium
[2] = read-out: PBMC EC50 IFN-γ, interferon-gamma level in medium
[3] = read-out: PBMC EC50 TNF-α, tumor necrosis factor-alpha level in medium

Description: Selected compounds were tested in an in vitro peripheral blood mononuclear cell (PBMC) assay. […] Serially diluted tested compounds were added to wells in 50 μl of cultivation medium and cells were incubated with the compounds for 1h at 37° C. with 5% CO2. Plates with cells were then spun 500 g for 5 minutes and the medium was removed. Cells were washed twice with the cell culture medium by the use of centrifugation and gently resuspended in 100 μl medium without compounds. After 15 hour incubation at 37° C. with 5% CO2, the cell culture medium was collected and the levels of interferon-alpha (INF-α), interferon-gamma (INF-γ) and tumor necrosis factor-alpha (TNF-α) were determined with ProcartaPlex Assays (ThermoFisher, Waltham, USA) and MAGPIX System (Merck KGaA, Darmstadt, Germany). […] Values reported are an average of runs from one to four donors.

SMILES	EC50 [1] [nM]	EC50 [2] [nM]	EC50 [3] [nM]
CCCCCC(=O)Oc1ccc(C(=O)Oc2ccc(CSP3(=O)OC[C@H]4O[C@@H](n5cnc6c(N)ncnc65)[C@H](F)[C@@H]4OCP(=O)(O)OC[C@H]4O[C@@H](n5cnc6c(=O)[nH]c(N)nc65)[C@H](O3)[C@@H]4F)cc2)cc1 (single isomer, unassigned) [Compound 40b]	8100	10400	10400
CC(C)(C)C(=O)OCOc1ccc(CSP2(=O)OC[C@H]3O[C@@H](n4cnc5c(N)ncnc54)[C@H](F)[C@@H]3OCP(=O)(O)OC[C@H]3O[C@@H](n4cnc5c(=O)[nH]c(N)nc54)[C@H](O2)[C@@H]3F)cc1 (single isomer, unassigned) [Compound 39b]	900	1400	1000
CCCCCCCCCCCC(=O)OCSP1(=O)OC[C@H]2O[C@@H](n3cnc4c(N)ncnc43)[C@H](F)[C@@H]2OCP(=O)(O)OC[C@H]2O[C@@H](n3cnc4c(=O)[nH]cnc43)[C@H](O1)[C@@H]2F (single isomer, unassigned) [Compound 56b]	3000	1300	2000
CCCCCCCCCCCC(=O)Oc1ccc(CSP2(=O)OC[C@H]3O[C@@H](n4cnc5c(N)ncnc54)[C@H](F)[C@@H]3OCP(=O)(O)OC[C@H]3O[C@@H](n4cnc5c(=O)[nH]c(N)nc54)[C@H](O2)[C@@H]3F)cc1 (single isomer, unassigned) [Compound 38a]	1400	2600	1400
CCCCCCCCCCCCCCOC(=O)OCSP1(=O)OC[C@H]2O[C@@H](n3cnc4c(N)ncnc43)[C@H](F)[C@@H]2OCP(=O)(O)OC[C@H]2O[C@@H](n3cnc4c(=O)[nH]cnc43)[C@H](O1)[C@@H]2F (stereo partly drawn) [Compound 72b, {[(1S,6R,8R,9R,10R,16R,18R,19R)-8-(6-amino-9H-purin-9-yl)-9,19-difluoro-13-hydroxy-3,13-dioxo-18-(6-oxo-6,9-dihydro-1H-purin-9-yl)-2,4,7,11,14,17-hexaoxa-3λ^5,13λ^5-diphosphatricyclo[14.2.1.0^6,10]nonadecan-3-yl]sulfanyl}methyl tetradecyl carbonate]	1700	800	1600
CCCCCCCCCCCC(=O)OCSP1(=O)OC[C@H]2O[C@@H](n3cnc4c(N)ncnc43)[C@H](F)[C@@H]2OCP(=O)(O)OC[C@H]2O[C@@H](n3cnc4c(=O)[nH]cnc43)[C@H](O1)[C@@H]2F (single isomer, unassigned) [Compound 56a]	1600	2200	1800
CCCCCCCCCCCCOC(=O)OCSP1(=O)OC[C@H]2O[C@@H](n3cnc4c(N)ncnc43)[C@H](F)[C@@H]2OCP(=O)(O)OC[C@H]2O[C@@H](n3cnc4c(=O)[nH]cnc43)[C@H](O1)[C@@H]2F (stereo partly drawn) [Compound 58b, {[(1S,6R,8R,9R,10R,16R,18R,19R)-8-(6-amino-9H-purin-9-yl)-9,19-difluoro-13-hydroxy-3,13-dioxo-18-(6-oxo-6,9-dihydro-1H-purin-9-yl)-2,4,7,11,14,17-hexaoxa-3λ^5,13λ^5-diphosphatricyclo[14.2.1.0^6,10]nonadecan-3-yl]sulfanyl}methyl dodecyl carbonate]	1200	1900	1300
Nc1nc2c(ncn2[C@@H]2O[C@@H]3COP(=O)(O)O[C@H]4[C@@H](O)[C@H](n5cnc6c(N)ncnc65)O[C@@H]4COP(=O)(O)O[C@@H]2[C@@H]3O)c(=O)[nH]1 [2′3′-cGAMP, c[G(2′,5′)pA(3′,5′)p], reference compound]	300000	164000	210000
CCCCCCCCCCCC(=O)OCSP1(=O)OC[C@H]2O[C@@H](n3cnc4c(N)ncnc43)[C@H](F)[C@@H]2OCP(=O)(O)OC[C@H]2O[C@@H](n3cnc4c(=O)[nH]c(N)nc43)[C@H](O1)[C@@H]2F (single isomer, unassigned) [Compound 57b]	1700	2500	1600
CCCCCCCCCCCCCCCC(=O)OCSP1(=O)OC[C@H]2O[C@@H](n3cnc4c(N)ncnc43)[C@H](F)[C@@H]2OCP(=O)(O)OC[C@H]2O[C@@H](n3cnc4c(=O)[nH]cnc43)[C@H](O1)[C@@H]2F (single isomer, unassigned) [Compound 64b]	1400	800	2000
CCCCCCCCCCCCCC(=O)OCSP1(=O)OC[C@H]2O[C@@H](n3cnc4c(N)ncnc43)[C@H](F)[C@@H]2OCP(=O)(O)OC[C@H]2O[C@@H](n3cnc4c(=O)[nH]cnc43)[C@H](O1)[C@@H]2F (single isomer, unassigned) [Compound 68a]	900	1000	600
CCCCCCCCCCCCCCCC(=O)OCSP1(=O)OC[C@H]2O[C@@H](n3cnc4c(N)ncnc43)[C@H](F)[C@@H]2OCP(=O)(O)OC[C@H]2O[C@@H](n3cnc4c(=O)[nH]cnc43)[C@H](O1)[C@@H]2F (single isomer, unassigned) [Compound 64a]	600	2600	400
CCCCCCCCCCCCOC(=O)OCSP1(=O)OC[C@H]2O[C@@H](n3cnc4c(N)ncnc43)[C@H](F)[C@@H]2OCP(=O)(O)OC[C@H]2O[C@@H](n3cnc4c(=O)[nH]c(N)nc43)[C@H](O1)[C@@H]2F (stereo partly drawn) [Compound 59b, {[(1S,6R,8R,9R,10R,16R,18R,19R)-18-(2-amino-6-oxo-6,9-dihydro-1H-purin-9-yl)-8-(6-amino-9H-purin-9-yl)-9,19-difluoro-13-hydroxy-3,13-dioxo-2,4,7,11,14,17-hexaoxa-3λ^5,13λ^5-diphosphatricyclo[14.2.1.0^6,10]nonadecan-3-yl]sulfanyl}methyl dodecyl carbonate]	1800	2200	2100
CCCCCCCCCCCCCCCCOC(=O)OCSP1(=O)OC[C@H]2O[C@@H](n3cnc4c(N)ncnc43)[C@H](F)[C@@H]2OCP(=O)(O)OC[C@H]2O[C@@H](n3cnc4c(=O)[nH]cnc43)[C@H](O1)[C@@H]2F (stereo partly drawn) [Compound 73b, {[(1S,6R,8R,9R,10R,16R,18R,19R)-8-(6-amino-9H-purin-9-yl)-9,19-difluoro-13-hydroxy-3,13-dioxo-18-(6-oxo-6,9-dihydro-1H-purin-9-yl)-2,4,7,11,14,17-hexaoxa-3λ^5,13λ^5-diphosphatricyclo[14.2.1.0^6,10]nonadecan-3-yl]sulfanyl}methyl hexadecyl carbonate]	3000	7000	4000
CCCCCCCCCC(=O)Oc1ccc(CSP2(=O)OC[C@H]3O[C@@H](n4cnc5c(N)ncnc54)[C@H](F)[C@@H]3OCP(=O)(O)OC[C@H]3O[C@@H](n4cnc5c(=O)[nH]c(N)nc54)[C@H](O2)[C@@H]3F)cc1 (single isomer, unassigned) [Compound 35a]	2600	3200	1900
CCCCCCCC(=O)OCSP1(=O)OC[C@H]2O[C@@H](n3cnc4c(N)ncnc43)[C@H](F)[C@@H]2OCP(=O)(O)OC[C@H]2O[C@@H](n3cnc4c(=O)[nH]cnc43)[C@H](O1)[C@@H]2F (stereo partly drawn) [Compound 63b, {[(1S,6R,8R,9R,10R,16R,18R,19R)-8-(6-amino-9H-purin-9-yl)-9,19-difluoro-13-hydroxy-3,13-dioxo-18-(6-oxo-6,9-dihydro-1H-purin-9-yl)-2,4,7,11,14,17-hexaoxa-3λ^5,13λ^5-diphosphatricyclo[14.2.1.0^6,10]nonadecan-3-yl]sulfanyl}methyl octanoate]	9000	3700	8000
